# From PMC6175828, “C16-ceramide is a natural regulatory ligand of p53 in cellular stress response” (Nature Communications, 2018)
# Columns and labels:
# p53 [1] = target: T1, p53 (Homo sapiens, UniProt P04637); test: intrinsic tyrosine fluorescence quenching titration of purified p53 DBD; PVDF membrane-binding assay; parameters: gene TP53
# p53 [2] = target: T2, p53 (Homo sapiens, UniProt P04637, R175H); test: binding test of p53 mutant (Supplementary Figure 4a), qualitative
# T2 construct: gene TP53
# p53 [3] = target: T3, p53 (Homo sapiens, UniProt P04637, S241A); test: binding test of p53 mutant (Supplementary Figure […]), qualitative
# T3 construct: gene TP53; full-length
# p53 [4] = target: T4, p53 (Homo sapiens, UniProt P04637, S240E); test: as above
# T4 construct: gene TP53; full-length
# p53 [5] = target: T1, p53; test: UV photo-crosslinking, MALDI-TOF MS and LC-MS/MS site mapping; thermal shift (Tm […] to […] °C); type: binding; parameters: gene TP53; DBD, residues 100–300
# p53 [6] = target: T1, p53; test: PVDF membrane-binding assay with purified p53; p53 immunoprecipitation with LC-MS/MS of bound ceramide; parameters: gene TP53; purified recombinant p53; endogenous p53 pulled down from A549 cells
smiles,measurement,setting,value
"CCCCCCCCCCCCC/C=C/[C@@H](O)[C@H](CO)NC(=O)CCCCCCCCCCCCCCC[n+]1ccccc1 [PC16, D-erythro-2-N-[16′-(1′′-pyridinium)-hexadecanoyl]-sphingosine bromide]",Kd,p53 [1],~60 nM
same,"binding test of p53 mutant (Supplementary Figure 4a), qualitative",p53 [2],"R175H, did not affect the binding of PC16 to p53 (Supplementary Figure 4a)"
same,"binding test of p53 mutant (Supplementary Figure 4), qualitative",p53 [3],substitutions with aa having shorter side chains (S241A or S240E) did not affect the binding
same,"binding test of p53 mutant (Supplementary Figure 4), qualitative",p53 [4],substitutions with aa having shorter side chains (S241A or S240E) did not affect the binding
"C#CCCCC1(CCCCCCCCC(=O)N[C@@H](CO)[C@H](O)/C=C/CCCCCCCCCCCCC)N=N1 [PAC, N-(9-(3-pent-4-ynyl-3-H-diazirin-3-yl)-nonanoyl)-D-erythro-sphingosine]","UV photo-crosslinking, MALDI-TOF MS and LC-MS/MS site mapping; thermal shift (Tm)",p53 [5],"LC-MS/MS data revealed two ceramide-modified residues, Ser240 and Ser241 (Fig. 3b), in the PAC-modified sample only"
"CCCCCCCCCCCCC/C=C/[C@@H](O)[C@H](CO)NC(=O)CCCCCCCCCCCCCCC [C16-ceramide, N-(hexadecanoyl)-sphing-4-enine]",PVDF membrane-binding assay with purified p53; p53 immunoprecipitation with LC-M,p53 [6],these experiments demonstrated the strong preference of p53 for C16-ceramide
